In PubChem BioAssay AID1918995 (Molecular Pharmacology Branch, DTP, NCI, 2023):
Where “and” joins values, the source holds several entries; their conditions need not be identical. Equal entries are not always repeated.

Tested on: 324938-238-R-J1-PDC complex spheroid growth, % test/control
Experiment: Anticancer human tumor 324938-238-R-J1-PDC patient-derived bladder carcinoma cell line growth inhibition [AhR]
Conditions: for viability, T/C: stronger effect = lower value; active means viability on the fitted dose curve at most 10% of control; inactive means the rest
How it was run: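 Agents were dosed in half-log steps down from roughly clinical Cmax, or from 10 microM where Cmax was unknown, alone and with AhR antagonists. Read-out: percent test/control growth of tumor spheroids containing HUVEC and MSC stromal cells.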

[1] = curve of first compound, second compound 0.1 µM
[2] = curve of first compound, second compound 0.316 µM
[3] = curve of first compound, second compound 1 µM
[4] = curve of first compound, second compound 3.16 µM
[5] = curve of first compound, second compound 10 µM
[6] = second compound 0.1 µM, first compound 0.0316 µM
[7] = second compound 0.1 µM, first compound 0.1 µM
[8] = second compound 0.1 µM, first compound 0.316 µM
[9] = second compound 0.1 µM, first compound 1 µM
[10] = second compound 0.1 µM, first compound 3.16 µM
[11] = second compound 0.1 µM, first compound 10 µM
[12] = second compound 0.316 µM, first compound 0.0316 µM
[13] = second compound 0.316 µM, first compound 0.1 µM
[14] = second compound 0.316 µM, first compound 0.316 µM
[15] = second compound 0.316 µM, first compound 1 µM
[16] = second compound 0.316 µM, first compound 3.16 µM
[17] = second compound 0.316 µM, first compound 10 µM
[18] = second compound 1 µM, first compound 0.0316 µM
[19] = second compound 1 µM, first compound 0.1 µM
[20] = second compound 1 µM, first compound 0.316 µM
[21] = second compound 1 µM, first compound 1 µM
[22] = second compound 1 µM, first compound 3.16 µM
[23] = second compound 1 µM, first compound 10 µM
[24] = second compound 3.16 µM, first compound 0.0316 µM
[25] = second compound 3.16 µM, first compound 0.1 µM
[26] = second compound 3.16 µM, first compound 0.316 µM
[27] = second compound 3.16 µM, first compound 1 µM
[28] = second compound 3.16 µM, first compound 3.16 µM
[29] = second compound 3.16 µM, first compound 10 µM
[30] = second compound 10 µM, first compound 0.0316 µM
[31] = second compound 10 µM, first compound 0.1 µM
[32] = second compound 10 µM, first compound 0.316 µM
[33] = second compound 10 µM, first compound 1 µM
[34] = second compound 10 µM, first compound 3.16 µM
[35] = second compound 10 µM, first compound 10 µM
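Further: spheroids exposed to agents for seven days before viability read.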

CCN(c1cc(-c2ccc(CN3CCOCC3)cc2)cc(C(=O)NCc2c(C)cc(C)[nH]c2=O)c1C)C1CCOCC1 + Cc1ccccc1N=Nc1ccc(NC(=O)c2ccnn2C)c(C)c1
> 3 µM: IC50 [1] | IC50 [2] | IC50 [3] | IC50 [4] | IC50 [5]
inactive: viability, T/C (second compound 0.1 µM, first compound 0.00949 µM) 123% | viability, T/C (second compound 0.1 µM, first compound 0.03 µM) 113% | viability, T/C (second compound 0.1 µM, first compound 0.0949 µM) 111% | viability, T/C (second compound 0.1 µM, first compound 0.3 µM) 93.2% | viability, T/C (second compound 0.1 µM, first compound 0.949 µM) 96.2% | viability, T/C (second compound 0.1 µM, first compound 3 µM) 93.3% | viability, T/C (second compound 0.316 µM, first compound 0.00949 µM) 100% | viability, T/C (second compound 0.316 µM, first compound 0.03 µM) 111% | viability, T/C (second compound 0.316 µM, first compound 0.0949 µM) 106% | viability, T/C (second compound 0.316 µM, first compound 0.3 µM) 103% | viability, T/C (second compound 0.316 µM, first compound 0.949 µM) 108% | viability, T/C (second compound 0.316 µM, first compound 3 µM) 94.8% | viability, T/C (second compound 1 µM, first compound 0.00949 µM) 102% | viability, T/C (second compound 1 µM, first compound 0.03 µM) 101% | viability, T/C (second compound 1 µM, first compound 0.0949 µM) 94.9% | viability, T/C (second compound 1 µM, first compound 0.3 µM) 90% | viability, T/C (second compound 1 µM, first compound 0.949 µM) 98.7% | viability, T/C (second compound 1 µM, first compound 3 µM) 93.2% | viability, T/C (second compound 3.16 µM, first compound 0.00949 µM) 82.4% | viability, T/C (second compound 3.16 µM, first compound 0.03 µM) 100% | viability, T/C (second compound 3.16 µM, first compound 0.0949 µM) 81.9% | viability, T/C (second compound 3.16 µM, first compound 0.3 µM) 90.2% | viability, T/C (second compound 3.16 µM, first compound 0.949 µM) 91.8% | viability, T/C (second compound 3.16 µM, first compound 3 µM) 93.6% | viability, T/C (second compound 10 µM, first compound 0.00949 µM) 88.4% | viability, T/C (second compound 10 µM, first compound 0.03 µM) 89.6% | viability, T/C (second compound 10 µM, first compound 0.0949 µM) 82% | viability, T/C (second compound 10 µM, first compound 0.3 µM) 87% | viability, T/C (second compound 10 µM, first compound 0.949 µM) 77.5% | viability, T/C (second compound 10 µM, first compound 3 µM) 84.8%

O=C(c1cc(Cc2n[nH]c(=O)c3ccccc23)ccc1F)N1CCN(C(=O)C2CC2)CC1
inactive: viability, T/C (compound 0.0316 µM) 115% and 100% and 97.8% | viability, T/C (compound 0.1 µM) 73.1% and 102% and 96.9% | viability, T/C (compound 0.316 µM) 66% and 103% and 82% | viability, T/C (compound 1 µM) 86.6% and 110% and 88.1% | viability, T/C (compound 3.16 µM) 69.2% and 90.5% and 77.8% | viability, T/C (compound 10 µM) 79% and 74.1% and 47.3%
> 10 µM and 9.37 µM: IC50 (curve of compound)

O=C(c1cc(Cc2n[nH]c(=O)c3ccccc23)ccc1F)N1CCN(C(=O)C2CC2)CC1 + CC(CO)NC(=O)c1cc(-c2ccc(Cl)cc2)nn(-c2cnn(C)c2)c1=O
inactive: viability, T/C [6] 97.6% | viability, T/C [7] 104% | viability, T/C [8] 85.3% | viability, T/C [9] 75.6% | viability, T/C [10] 66.9% | viability, T/C [11] 48.6% | viability, T/C [12] 83.3% | viability, T/C [13] 81% | viability, T/C [14] 79.2% | viability, T/C [15] 69.8% | viability, T/C [16] 65.3% | viability, T/C [17] 52% | viability, T/C [18] 82% | viability, T/C [19] 77.1% | viability, T/C [20] 75.1% | viability, T/C [21] 70.6% | viability, T/C [22] 65.7% | viability, T/C [23] 54% | viability, T/C [24] 65.8% | viability, T/C [25] 69.8% | viability, T/C [26] 73.7% | viability, T/C [27] 57.8% | viability, T/C [28] 53.9% | viability, T/C [29] 48.4% | viability, T/C [30] 58.8% | viability, T/C [31] 63.8% | viability, T/C [32] 55.5% | viability, T/C [33] 50.5% | viability, T/C [34] 54.1% | viability, T/C [35] 47.5%
5.14 µM: IC50 [5]
6.86 µM: IC50 [4]
9.56 µM: IC50 [1]
> 10 µM: IC50 [2] | IC50 [3]

Nc1ccccc1NC(=O)c1ccc(CNC(=O)OCc2cccnc2)cc1 + CC(CO)NC(=O)c1cc(-c2ccc(Cl)cc2)nn(-c2cnn(C)c2)c1=O
2.54 µM: IC50 [2]
3.25 µM: IC50 [4]
active: viability, T/C [29] 7.19% | viability, T/C [35] 1.83%
2.71 µM: IC50 [5]
3.99 µM: IC50 [3]
inactive: viability, T/C [6] 116% | viability, T/C [7] 122% | viability, T/C [8] 99.1% | viability, T/C [9] 66.3% | viability, T/C [10] 63.9% | viability, T/C [11] 26.3% | viability, T/C [12] 118% | viability, T/C [13] 112% | viability, T/C [14] 95.2% | viability, T/C [15] 61.4% | viability, T/C [16] 52.4% | viability, T/C [17] 26.7% | viability, T/C [18] 99.2% | viability, T/C [19] 109% | viability, T/C [20] 102% | viability, T/C [21] 69.5% | viability, T/C [22] 61.6% | viability, T/C [23] 25.7% | viability, T/C [24] 88% | viability, T/C [25] 90.8% | viability, T/C [26] 84.9% | viability, T/C [27] 63.9% | viability, T/C [28] 56.4% | viability, T/C [30] 82.2% | viability, T/C [31] 90.8% | viability, T/C [32] 80.9% | viability, T/C [33] 63.9% | viability, T/C [34] 50%
3.83 µM: IC50 [1]
